Assay results from patent US10391095B2, “DNA-PK inhibitors” (Vertex Pharmaceuticals Incorporated, priority 2012, dated 2019).

molecular target: DNA-PK (Homo sapiens, UniProt P78527); assay: DNA-PK inhibition assay (radiometric, 33P-ATP); type: biochemical; conditions: 100 μM ATP, competitive tight-binding fit
Procedure, shortened: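 33P transfer from 100 µM ATP to a DNA-PK peptide (0.8 mg/mL) is measured after 45 min, using about 6 nM enzyme activated by 10 µg/mL sheared dsDNA (HEPES pH 7.5, MgCl2, DTT). Filter-bound counts fitted to a competitive tight-binding inhibition model give Ki.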

Compound | Ki
C[C@H](CNc1cc(-c2ccc(N3CCOCC3)nc2)ncn1)c1ccnc2c1OCCO2 [Compound 522] | < 30 nM
C[C@H](CNc1cc(-c2cnc3c(cnn3C3CN(C(=O)OC(C)(C)C)C3)c2)ncn1)c1ccnc2c1OCCO2 [Compound 526] | < 30 nM
C[C@H](CNc1cc(-c2cnc3c(cnn3C3CNC3)c2)ncn1)c1ccnc2c1OCCO2 [Compound 527] | < 30 nM
Cc1ccc(-c2cc(NC[C@@H](C)c3ccnc4c3OCCC4)ncn2)cn1 [Compound 535] | < 30 nM
C[C@H](CNc1cc(-c2cnc3c(ccn3C3COC3)c2)ncn1)c1ccnc2c1OCCO2 [Compound 536] | < 30 nM
C[C@H](CNc1cc(-c2ccc3ccncc3c2)ncn1)c1ccnc2c1OCCO2 [Compound 541] | < 30 nM
CCNC(=O)c1ccnc2c([C@H](C)CNc3cc(-c4ccc(C)nc4)ncn3)cccc12 [Compound 545] | < 30 nM
Cc1ccc(-c2cc(NC[C@@H](C)c3cccc4c(C(=O)NCC(F)(F)F)ccnc34)ncn2)cn1 [Compound 546] | < 30 nM
[2H]C([2H])([2H])NC(=O)c1ccnc2c([C@H](C)CNc3cc(-c4ccc(C)nc4)ncn3)cccc12 [Compound 549] | < 30 nM
COc1ncc(-c2cc(NC[C@@H](C)c3ccnc4c3OCCO4)ncn2)cc1CO [Compound 550] | < 30 nM
C[C@H](CNc1cc(-c2cnc(N)c(Cl)c2)ncn1)c1ccnc2c1OCCO2 [Compound 553] | < 30 nM
C[C@H](CNc1cc(-c2cnc(F)c(N)c2)ncn1)c1ccnc2c1OCCO2 [Compound 554] | < 30 nM
Cc1ccc2cc(-c3cc(NC[C@@H](C)c4ccnc5c4OCCO5)ncn3)ccc2n1 [Compound 555] | < 30 nM
C[C@H](CNc1cc(-c2cc(F)c3ncccc3c2)ncn1)c1ccnc2c1OCCO2 [Compound 556] | < 30 nM
C[C@H](CNc1cc(-c2cc(C(F)(F)F)c3ncccc3c2)ncn1)c1ccnc2c1OCCO2 [Compound 557] | < 30 nM
C[C@H](CNc1cc(-c2cnc3ccccc3c2)ncn1)c1ccnc2c1OCCO2 [Compound 559] | < 30 nM
CNC(=O)c1ccnc2c([C@H](C)CNc3cc(-c4ccc(C)nc4)ncn3)cc(F)cc12 [Compound 562] | < 30 nM

Compound | Ki
Cc1ccc(-c2cc(NC[C@@H](C)c3ccnc4cc(C)oc34)ncn2)cn1 [Compound 563] | < 30 nM
Cc1ccc(-c2cc(NC[C@@H](C)c3cccc4c(CO)ccnc34)ncn2)cn1 [Compound 568] | < 30 nM
Cc1ccc(-c2cc(NC[C@@H](C)c3cccc4c(C(=O)NCC(F)F)ccnc34)ncn2)cn1 [Compound 569] | < 30 nM
CCNc1ccc(-c2cc(NC[C@@H](C)c3cc(F)cc4c(C(=O)NC)ccnc34)ncn2)cn1 [Compound 572] | < 30 nM
CCNc1ccc(-c2cc(NC[C@@H](C)c3ccnc4cc(C)oc34)ncn2)cn1 [Compound 573] | < 30 nM
CNc1ncc(-c2cc(NC[C@@H](C)c3cc(C)nc4c3OCC4)ncn2)cn1 [Compound 574] | < 30 nM
CCNc1ccc(-c2cc(NC[C@@H](C)c3cc(C)nc4c3OCC4)ncn2)cn1 [Compound 575] | < 30 nM
CNC(=O)c1ccnc2c([C@H](C)CNc3cc(-c4cnc(NC)nc4)ncn3)cccc12 [Compound 579] | < 30 nM
CNC(=O)c1ccnc2c([C@H](C)CNc3cc(-c4cnc5c(cnn5CCO)c4)ncn3)cccc12 [Compound 580] | < 30 nM
CCNc1ccc(-c2cc(NC[C@@H](C)c3cccc4c(C(=O)NC)ccnc34)ncn2)cn1 [Compound 581] | < 30 nM
CNC(=O)c1ccnc2c([C@H](C)CNc3cc(-c4ccc5ncccc5c4)ncn3)cccc12 [Compound 582] | < 30 nM
Cc1ccc(-c2cc(NC[C@@H](C)c3ccnc4c3OCC4(C)C)ncn2)cn1 [Compound 583] | < 30 nM
CNCCNc1ccc(-c2cc(NC[C@@H](C)c3cccc4c(C(=O)NC)ccnc34)ncn2)cn1 [Compound 584] | < 30 nM
CCNc1ncc(-c2cc(NC[C@@H](C)c3ccc(C(=O)NC)cc3OC)ncn2)cn1 [Compound 585] | < 30 nM
CNC(=O)c1ccnc2c([C@H](C)CNc3cc(-c4ccc(N)nc4)ncn3)cccc12 [Compound 586] | < 30 nM
CNC(=O)c1ccnc2c([C@H](C)CNc3cc(-c4ccc(S(C)(=O)=O)nc4)ncn3)cccc12 [Compound 587] | < 30 nM
COc1ncc(-c2cc(NC[C@@H](C)c3ccnc4c3OCC4)ncn2)cc1N [Compound 589] | < 30 nM

Other lines, results leading:

Ki | Compound
< 30 nM | Cc1ccc(-c2cc(NCC(C)c3cccc4c3OCCO4)ncn2)cn1 (stereo not drawn) [Compound 447]
< 30 nM | CNC(=O)c1ccc(C(C)CNc2cc(-c3cn(C4COC4)c4ncc(F)cc34)ncn2)c(OC)c1 (stereo not drawn) [Compound 449]
< 30 nM | Cc1ccc(-c2cc(NCC(C)c3cncc4c3OCCC4)ncn2)cn1 (stereo not drawn) [Compound 451]
< 30 nM | CC(CNc1cc(-c2cnc3c(cnn3CCO)c2)ncn1)c1cncc2c1OCCC2 (stereo not drawn) [Compound 452]
< 30 nM | C=C(CNc1cc(-c2ccc(C)nc2)ncn1)c1cnc(N)nc1OC [Compound 453]
< 30 nM | CNC(=O)c1ccc([C@H](C)CNc2cc(-c3ccc4ncccc4c3)ncn2)c(OC)c1 [Compound 454]
< 30 nM | CC(=O)c1ccc(-c2cc(NC[C@@H](C)c3ccnc4c3OCCO4)ncn2)cc1 [Compound 456]
< 30 nM | C[C@H](CNc1cc(-c2cnc(NCCO)nc2)ncn1)c1ccnc2c1OCCO2 [Compound 457]
< 30 nM | COCc1ccc(-c2cc(NC[C@@H](C)c3ccnc4c3OCCO4)ncn2)cc1 [Compound 458]
< 30 nM | C[C@H](CNc1cc(-c2ccc(N)nc2)ncn1)c1ccnc2c1OCCO2 [Compound 459]
< 30 nM | C[C@H](CNc1cc(-c2ccc(N(C)C)nc2)ncn1)c1ccnc2c1OCCO2 [Compound 460]
< 30 nM | CNc1ncc(-c2cc(NC[C@@H](C)c3ccnc4c3OCCO4)ncn2)cn1 [Compound 462, (S)—N^6-(2-(2,3-dihydro-[1,4]dioxino[2,3-b]pyridin-8-yl)propyl)-N^2′-methyl-[4,5′-bipyrimidine]-2′,6-diamine]
< 30 nM | C[C@H](CNc1cc(-c2ccc3ncccc3c2)ncn1)c1ccnc2c1OCCO2 [Compound 464]
< 30 nM | C[C@H](CNc1cc(-c2ccc(NC3CC3)nc2)ncn1)c1ccnc2c1OCCO2 [Compound 465]
< 30 nM | COc1ccc(C(C)CNc2cc(-c3ccc(C)nc3)ncn2)c(OC)n1 (stereo not drawn) [Compound 466]
< 30 nM | C=C(CNc1cc(-c2ccc(C)nc2)ncn1)c1cccc2c(C(=O)NC)ccnc12 [Compound 467]
< 30 nM | CNCCNc1ccc(-c2cc(NC[C@@H](C)c3ccc(C(=O)NC)cc3OC)ncn2)cn1 [Compound 469]
< 30 nM | C[C@H](CNc1cc(-c2cnc3c(cnn3CCO)c2)ncn1)c1ccnc2cccnc12 [Compound 472]
< 30 nM | COc1nc(N)ncc1[C@H](C)CNc1cc(-c2ccc(C)nc2)ncn1 [Compound 475]
< 30 nM | CNC(=O)c1ccnc2c([C@H](C)CNc3cc(-c4ccc(C)nc4)ncn3)cccc12 [Compound 476]
< 30 nM | Cc1ccc(-c2cc(NCC(C)c3ccc(F)c4ccoc34)ncn2)cn1 (stereo not drawn) [Compound 477]
< 30 nM | CNC(=O)c1ccc([C@H](C)CNc2cc(-c3ccc(C)nc3)ncn2)c(OC2CCC2)c1 [Compound 478]

Ki | Compound
< 30 nM | CNC(=O)c1ccc([C@H](C)CNc2cc(-c3ccnc4c3ccn4C3COC3)ncn2)c(OC)c1 [Compound 479]
< 30 nM | C[C@H](CNc1cc(-c2ccc3ncccc3c2)ncn1)c1ccnc2c1OCC2 [Compound 480]
< 30 nM | CNC(=O)c1ccc([C@H](C)CNc2cc(-c3cn(C4COC4)c4ncccc34)ncn2)c(OC)c1 [Compound 481]
< 30 nM | CNCCNc1ccc(-c2cc(NC[C@@H](C)c3ccnc4c3OCC4)ncn2)cn1 [Compound 483]
< 30 nM | CNC(=O)c1cc(C)nc2c([C@H](C)CNc3cc(-c4ccc(C)nc4)ncn3)cccc12 [Compound 484]
< 30 nM | CNC(=O)c1ccc([C@H](C)CNc2cc(-c3ccc(C)nc3)ncn2)c2ncccc12 [Compound 485]
< 30 nM | CCNc1ccc(-c2cc(NC[C@@H](C)c3ccnc4c3OCC4)ncn2)cn1 [Compound 486]
< 30 nM | CNC(=O)c1ccc([C@H](C)CNc2cc(-c3cnc4c(c3)OCCN4C)ncn2)c(OC)c1 [Compound 490]
< 30 nM | C[C@H](CNc1cc(-c2cnc3c(cnn3C3COC3)c2)ncn1)c1ccnc2c1OCCO2 [Compound 493]
< 30 nM | Cc1ccc(-c2cc(NC[C@@H](C)c3cccc4c(C(N)=O)ccnc34)ncn2)cn1 [Compound 494]
< 30 nM | Cc1ccc(-c2cc(NC[C@@H](C)c3ccnc4cccnc34)ncn2)cn1 [Compound 495]
< 30 nM | CNc1ncc(-c2cc(NC[C@@H](C)c3ccnc4cccnc34)ncn2)cn1 [Compound 497]
< 30 nM | C[C@H](CNc1cc(-c2ccc3ncccc3c2)ncn1)c1ccnc2cccnc12 [Compound 501]
< 30 nM | Cc1ccc(-c2cc(NC[C@@H](C)c3cc(C)nc4c3OCC4)ncn2)cn1 [Compound 502]
< 30 nM | CC(=O)N1CCOc2c([C@H](C)CNc3cc(-c4ccc(C)nc4)ncn3)cccc21 [Compound 504]
< 30 nM | Cc1cc([C@H](C)CNc2cc(-c3cnc4c(cnn4CCO)c3)ncn2)c2c(n1)CCO2 [Compound 505]
< 30 nM | Cc1cc([C@H](C)CNc2cc(-c3ccc4ncccc4c3)ncn2)c2c(n1)CCO2 [Compound 508]
< 30 nM | CNC(=O)c1ccnc2c([C@H](C)CNc3cc(-c4ccc(C)nc4)ncn3)ccc(OC)c12 [Compound 509]
< 30 nM | Cc1ccc(-c2cc(NC[C@@H](C)c3cccc4c3OCCN4)ncn2)cn1 [Compound 513]
< 30 nM | CCNc1ccc(-c2cc(NC[C@@H](C)c3ccnc4cccnc34)ncn2)cn1 [Compound 514]
< 30 nM | CNC(=O)c1ccnc2c([C@H](C)CNc3cc(-c4ccc(C)nc4)ncn3)ccc(F)c12 [Compound 515]
< 30 nM | COc1ncc(-c2cc(NC[C@@H](C)c3ccnc4c3OCCO4)ncn2)cc1N [Compound 519]
